Test results from patent publication US20080262228A1, “Metabolites of 5-fluoro-8- quinoline and methods of preparation and uses thereof” (Wyeth, priority 2006, published 2008).
Where “and” joins values, the source holds several entries; their conditions need not be identical. Equal entries are not always repeated. Structures can show the parent of a compound that is named as a salt.

Assay: In vivo metabolism and excretion of [14C]COMPOUND I in male beagle dogs, single oral 3 mg/kg dose
Set-up: species or system dog
Conditions: for Cumulative Percent Excretion of Radioactivity in Feces (includes cage rinse): mean ± SD (n = 4); for Source: P, plasma, F, feces
Protocol: Dose preparation, animal dosing, and specimen collection were performed at Wyeth Research, Collegeville, Pa. The vehicle contained 2% (w/v) polysorbate 80, NF and 0.5% (w/v) methylcellulose (4000 cps) in water. [^14C]COMPOUND I trisuccinate salt (50.25 mg) and non-labeled COMPOUND I trisuccinate salt (331.9 mg) were suspended in 72 mL of the vehicle by grinding with a mortar and a pestle. The target [^14C]COMPOUND I concentration was approximately 3 mg/mL as free base and 48 μCi/mL with a target specific activity of 16 μCi/mg. Three pre- and post-dose aliquots (100 μL) were taken for the determination of radiochemical purity, drug and radioactivity concentrations and specific activity (see below).
Four male beagle dogs, weighing from 9.4 to 11.5 kg at the time of dosing, were from an in-house colony. Non-fasted dogs were given a single 3 mg/kg (approximately 48 μCi/kg) dose of [^14C]COMPOUND I at a volume of 1 mL/kg via intragastric gavage. Animals were provided Purina dog chow and water ad libitum, and were housed individually in metabolic cages.
Blood samples were collected from the jugular vein at 1, 4, 8, 24, 48, 72 and 120 hr after dose administration into tubes containing potassium EDTA as the anticoagulant and then placed on ice. Aliquots of 200 μL were removed and plasma was harvested immediately from the remaining blood by centrifugation at 4° C. Urine samples were collected into tubes on dry ice from 0-24 and 24-48 hr, and then at ambient temperature at 24 hr intervals for 7 days post-dose. Fecal samples were collected at 24 hr intervals for 7 days post-dose at room temperature. Cage rinses were collected daily by rinsing each cage with approximately 500 mL of 30% ethanol in water. The dose aliquots and biological specimens were stored at approximately −70° C. until analysis.
Triplicate aliquots of diluted dose (20 μL), dose fractions (10 μL) and plasma (50 μL), urine (200 μL) and cage wash (500 μL) from individual dogs were analyzed for radioactivity content. The samples were assayed in a Tri-Carb Model 3100TR liquid scintillation counter (Perkin Elmer) using 5 mL of Ultima Gold scintillation cocktail.
Fecal samples from individual dogs were weighed and homogenized in water at a volume-to-weight ratio of about 4:1 with a Silverson sealed-unit homogenizer at ambient temperature. Triplicate aliquots of whole blood (50 μL) and fecal homogenates (approximately 0.2 g) were placed into Combusto-cones with Combusto-pads and allowed to dry overnight. Samples were combusted with a model 307 Tri-Carb Sample Oxidizer, equipped with an Oximate-80 Robotic Automatic Sampler (Perkin Elmer). The liberated ^14CO2 was trapped with Carbo-Sorb® E carbon dioxide absorber, mixed with PermaFluor® E+liquid scintillation cocktail, and counted in a Tri-Carb Model 3100 TR/LL liquid scintillation counter.
Plasma samples were pooled by mixing equal volumes from four animals at each time point (1, 4, 8 and 24 hr). Aliquots of 2.0 mL of pooled plasma were mixed with 2.0 mL of acetonitrile, placed on ice for about 10 min, and then centrifuged at 4° C. The supernatant was transferred to a clean tube. The protein pellets were extracted two more times with 2.0 mL of acetonitrile. The supernatants from precipitation and extraction of each sample were pooled, mixed, and evaporated at 22° C. under nitrogen in a TurboVap LV evaporator (Caliper Life Sciences, Hopkinton, Mass.) to about 0.8 mL. The concentrated extract was centrifuged, the supernatant volume measured and the extraction efficiency was determined by analyzing duplicate 10 μL aliquots for radioactivity concentrations. For metabolite profiling, an aliquot of the supernatant (200 μL) was injected onto the HPLC column as described hereinbelow, and fractions were collected at 20 second intervals into 96-well Lumaplates (Perkin Elmer).

[1] = 1 hr, 3 mg/kg oral, individual dogs, 3 mg/kg
[2] = 4 hr, 3 mg/kg oral, individual dogs, 3 mg/kg
[3] = 8 hr, 3 mg/kg oral, individual dogs, 3 mg/kg
[4] = 24 hr, 3 mg/kg oral, individual dogs, 3 mg/kg
[5] = 48 hr, 3 mg/kg oral, individual dogs, 3 mg/kg
[6] = 72 hr, 3 mg/kg oral, individual dogs, 3 mg/kg
[7] = 120 hr, 3 mg/kg oral, individual dogs, 3 mg/kg
[8] = 120 hr, 3 mg/kg oral, mean ± SD
[9] = pooled 0-24 hr fecal sample, 3 mg/kg oral
[10] = pooled 24-48 hr fecal sample, 3 mg/kg oral

COc1cc(N2CCN(C3CCN(c4ccc(F)c5cccnc45)CC3)CC2)c2ncccc2c1 [[^14C]COMPOUND I, [piperazine-^14C(U)]-5-fluoro-8-(4-(4-(6-methoxyquinolin-8-yl)piperazin-1-yl)piperidin-1-yl)quinoline trisuccinate]
Recovery of Radioactivity in Cage Rinse (Percent of Dose) (0-24 hr, 3 mg/kg oral, individual dogs, 3 mg/kg): 0.18% and 1.64% and 1.74% and 0.78% | Recovery of Radioactivity in Cage Rinse (Percent of Dose) (0-24 hr, 3 mg/kg oral, mean ± SD): 1.09 ± 0.74% | Recovery of Radioactivity in Cage Rinse (Cumulative Percent of Dose) (0-48 hr, 3 mg/kg oral, individual dogs, 3 mg/kg): 0.46% and 2.57% and 2.20% and 1.75% | Recovery of Radioactivity in Cage Rinse (Cumulative Percent of Dose) (0-48 hr, 3 mg/kg oral, mean ± SD): 1.75 ± 0.92% | Cumulative Percent Excretion of Radioactivity in Feces (includes cage rinse) (0-48 hr, 3 mg/kg oral, 3 mg/kg): 61.2% and 61.2 ± 14.1% | Recovery of Radioactivity in Cage Rinse (Cumulative Percent of Dose) (0-72 hr, 3 mg/kg oral, individual dogs, 3 mg/kg): 0.65% and 3.00% and 2.57% and 1.97% | Recovery of Radioactivity in Cage Rinse (Cumulative Percent of Dose) (0-72 hr, 3 mg/kg oral, mean ± SD): 2.05 ± 1.02% | Recovery of Radioactivity in Cage Rinse (Cumulative Percent of Dose) (0-96 hr, 3 mg/kg oral, individual dogs, 3 mg/kg): 0.72% and 3.27% and 2.66% and 2.05% | Recovery of Radioactivity in Cage Rinse (Cumulative Percent of Dose) (0-96 hr, 3 mg/kg oral, mean ± SD): 2.18 ± 1.09% | Recovery of Radioactivity in Cage Rinse (Cumulative Percent of Dose) (0-120 hr, 3 mg/kg oral, individual dogs, 3 mg/kg): 0.75% and 3.39% and 2.73% and 2.12% | Recovery of Radioactivity in Cage Rinse (Cumulative Percent of Dose) (0-120 hr, 3 mg/kg oral, mean ± SD): 2.25 ± 1.13% | Recovery of Radioactivity in Cage Rinse (Cumulative Percent of Dose) (0-144 hr, 3 mg/kg oral, individual dogs, 3 mg/kg): 0.79% and 3.49% and 2.77% and 2.17% | Recovery of Radioactivity in Cage Rinse (Cumulative Percent of Dose) (0-144 hr, 3 mg/kg oral, mean ± SD): 2.31 ± 1.15% | Recovery of Radioactivity in Cage Rinse (Cumulative Percent of Dose) (0-168 hr, 3 mg/kg oral, individual dogs, 3 mg/kg): 0.84% and 3.58% and 2.83% and 2.20% | Recovery of Radioactivity in Cage Rinse (Cumulative Percent of Dose) (0-168 hr, 3 mg/kg oral, mean ± SD): 2.36 ± 1.16% | Cumulative Percent Excretion of Radioactivity in Feces (includes cage rinse) (0-168 hr, 3 mg/kg oral, 3 mg/kg): 72.8% and 72.8 ± 3.28% | dose excreted in urine (3 mg/kg oral): less than 7% | Recovery of Radioactivity in Cage Rinse (Percent of Dose) (24-48 hr, 3 mg/kg oral, individual dogs, 3 mg/kg): 0.28% and 0.93% and 0.46% and 0.97% | Recovery of Radioactivity in Cage Rinse (Percent of Dose) (24-48 hr, 3 mg/kg oral, mean ± SD): 0.66 ± 0.34% | Recovery of Radioactivity in Cage Rinse (Percent of Dose) (48-72 hr, 3 mg/kg oral, individual dogs, 3 mg/kg): 0.19% and 0.43% and 0.37% and 0.22% | Recovery of Radioactivity in Cage Rinse (Percent of Dose) (48-72 hr, 3 mg/kg oral, mean ± SD): 0.30 ± 0.12% | Recovery of Radioactivity in Cage Rinse (Percent of Dose) (72-96 hr, 3 mg/kg oral, individual dogs, 3 mg/kg): 0.07% and 0.27% and 0.09% and 0.08% | Recovery of Radioactivity in Cage Rinse (Percent of Dose) (72-96 hr, 3 mg/kg oral, mean ± SD): 0.13 ± 0.10% | Recovery of Radioactivity in Cage Rinse (Percent of Dose) (96-120 hr, 3 mg/kg oral, individual dogs, 3 mg/kg): 0.03% and 0.12% and 0.07% (2×) | Recovery of Radioactivity in Cage Rinse (Percent of Dose) (96-120 hr, 3 mg/kg oral, mean ± SD): 0.07 ± 0.04% | Recovery of Radioactivity in Cage Rinse (Percent of Dose) (120-144 hr, 3 mg/kg oral, individual dogs, 3 mg/kg): 0.04% (2×) and 0.10% and 0.05% | Recovery of Radioactivity in Cage Rinse (Percent of Dose) (120-144 hr, 3 mg/kg oral, mean ± SD): 0.06 ± 0.03% | Recovery of Radioactivity in Cage Rinse (Percent of Dose) (144-168 hr, 3 mg/kg oral, individual dogs, 3 mg/kg): 0.05% and 0.09% and 0.06% and 0.03% | Recovery of Radioactivity in Cage Rinse (Percent of Dose) (144-168 hr, 3 mg/kg oral, mean ± SD): 0.06 ± 0.03% | Concentration of Total Radioactivity in Plasma [1]: 336 ng equivalents/mL and 426 ng equivalents/mL and 496 ng equivalents/mL and 437 ng equivalents/mL | Concentration of Total Radioactivity in Whole Blood [1]: 270 ng equivalents/mL and 284 ng equivalents/mL and 404 ng equivalents/mL and 375 ng equivalents/mL | Concentration of Total Radioactivity in Whole Blood (1 hr, 3 mg/kg oral, mean ± SD): 333 ± 66.3 ng equivalents/mL | Concentration of Total Radioactivity in Plasma (1 hr, 3 mg/kg oral, mean ± SD, 3 mg/kg): 424±66.1 ng equivalents/mL | Concentration of Total Radioactivity in Plasma [2]: 166 ng equivalents/mL and 228 ng equivalents/mL and 326 ng equivalents/mL and 181 ng equivalents/mL | Concentration of Total Radioactivity in Whole Blood [2]: 138 ng equivalents/mL and 201 ng equivalents/mL and 191 ng equivalents/mL and 281 ng equivalents/mL | Concentration of Total Radioactivity in Plasma (4 hr, 3 mg/kg oral, mean ± SD): 225 ± 72.2 ng equivalents/mL | Concentration of Total Radioactivity in Whole Blood (4 hr, 3 mg/kg oral, mean ± SD): 203 ± 59.0 ng equivalents/mL | Concentration of Total Radioactivity in Plasma [3]: 102 ng equivalents/mL and 135 ng equivalents/mL and 171 ng equivalents/mL and 121 ng equivalents/mL | Concentration of Total Radioactivity in Whole Blood [3]: 93.5 ng equivalents/mL and 131 ng equivalents/mL and 160 ng equivalents/mL and 126 ng equivalents/mL | Concentration of Total Radioactivity in Plasma (8 hr, 3 mg/kg oral, mean ± SD): 132 ± 29.2 ng equivalents/mL | Concentration of Total Radioactivity in Whole Blood (8 hr, 3 mg/kg oral, mean ± SD): 128 ± 27.2 ng equivalents/mL | Concentration of Total Radioactivity in Plasma [4]: 49.1 ng equivalents/mL and 69.3 ng equivalents/mL and 155 ng equivalents/mL and 89.7 ng equivalents/mL | Concentration of Total Radioactivity in Whole Blood [4]: 41.2 ng equivalents/mL and 63.3 ng equivalents/mL and 98.5 ng equivalents/mL and 82.9 ng equivalents/mL | Concentration of Total Radioactivity in Whole Blood (24 hr, 3 mg/kg oral, mean ± SD): 71.5 ± 24.8 ng equivalents/mL | Concentration of Total Radioactivity in Plasma (24 hr, 3 mg/kg oral, mean ± SD, 3 mg/kg): 90.8±45.9 ng equivalents/mL | Concentration of Total Radioactivity in Plasma [5]: 25.5 ng equivalents/mL and 28.2 ng equivalents/mL and 58.5 ng equivalents/mL and 40.7 ng equivalents/mL | Concentration of Total Radioactivity in Whole Blood [5]: 22.2 ng equivalents/mL and 30.2 ng equivalents/mL and 40.8 ng equivalents/mL and 42.2 ng equivalents/mL | Concentration of Total Radioactivity in Plasma (48 hr, 3 mg/kg oral, mean ± SD): 38.2 ± 15.1 ng equivalents/mL | Concentration of Total Radioactivity in Whole Blood (48 hr, 3 mg/kg oral, mean ± SD): 33.9 ± 9.44 ng equivalents/mL | Concentration of Total Radioactivity in Plasma [6]: 17.6 ng equivalents/mL and 21.4 ng equivalents/mL and 73.6 ng equivalents/mL and 39.0 ng equivalents/mL | Concentration of Total Radioactivity in Whole Blood [6]: 16.8 ng equivalents/mL and 22.6 ng equivalents/mL and 25.2 ng equivalents/mL and 31.6 ng equivalents/mL | Concentration of Total Radioactivity in Plasma (72 hr, 3 mg/kg oral, mean ± SD): 37.9 ± 25.6 ng equivalents/mL | Concentration of Total Radioactivity in Whole Blood (72 hr, 3 mg/kg oral, mean ± SD): 24.1 ± 6.14 ng equivalents/mL | Concentration of Total Radioactivity in Plasma [7]: 45.1 ng equivalents/mL (2×) and 46.0 ng equivalents/mL and 46.7 ng equivalents/mL | Concentration of Total Radioactivity in Whole Blood [7]: 16.6 ng equivalents/mL and 18.4 ng equivalents/mL and 18.0 ng equivalents/mL and 24.0 ng equivalents/mL | Concentration of Total Radioactivity in Plasma [8]: 45.7 ± 0.78 ng equivalents/mL | Concentration of Total Radioactivity in Whole Blood [8]: 19.3 ± 3.26 ng equivalents/mL | administered dose excreted after the completion of the study (estimated from radioactivity in urine collected for several additional weeks): about 5%

Oc1cc(N2CCN(C3CCN(c4ccc(F)c5cccnc45)CC3)CC2)c2ncccc2c1 [Metabolite M21, 8-{4-[1-(5-fluoroquinolin-8-yl)piperidin-4-yl]piperazin-1-yl}quinolin-6-ol trihydrochloride]
Source (3 mg/kg oral): P, F | percent of total fecal radioactivity [9]: 79.3% | percent of total fecal radioactivity [10]: 60.9%

COc1cc(N2CCN(C3CCN(c4ccc(F)c5cccnc45)CC3)CC2)c2ncccc2c1 [COMPOUND I, 5-Fluoro-8-{4-[4-(6-methoxyquinolin-8-yl)piperazin-1-yl]piperidin-1-yl}quinoline]
Source (3 mg/kg oral): P, F | percent of total fecal radioactivity [9]: 1.2% | percent of total fecal radioactivity [10]: 6.7% | percent of total plasma radioactivity (pooled plasma, over 24 hr post-dose, 3 mg/kg oral): 71-78%
